These results are taken from patent US8551999B2, “Heterocyclic compound and pharmaceutical composition thereof” (Otsuka Pharmaceutical Co., Ltd., priority 2007, dated 2013).

Molecules are shown by their SMILES.

What is called melting point is the temperature of the solid-liquid transition. For the compound `COCc1ccc(CN2CCN(C(=O)c3cc4cc(Oc5ccc(N(C)C(=O)c6ccc(C(F)(F)F)cc6)cn5)ccc4n3C)CC2)cc1.O=C(O)/C=C\C(=O)O` [Example 415, N-(6-{2-[4-(4-Methoxymethylbenzyl)piperazine-1-carbonyl]-1-methyl-1H-indol-5-yloxy}pyridin-3-yl)-N-methyl-4-trifluoromethyl-benzamide maleate], the melting point was 137 to 139 °C.

In turn, `Br.Cn1c(C(=O)N2CCN(Cc3ccc4c(c3)OC(F)(F)O4)CC2)cc2ccc(Oc3ccc(NC(=O)c4ccc(Cl)c(Cl)c4)cn3)cc21` [Example 467, 3,4-Dichloro-N-(6-{2-[4-(2,2-difluorobenzo[1,3]dioxol-5-yl-methyl)piperazine-1-carbonyl]-1-methyl-1H-indol-6-yloxy}pyridin-3-yl)benzamide hydrobromide] displayed a melting point of 253 to 254.8 °C.

`Br.CN(c1ccc(C(F)(F)F)cc1)c1ccc(Oc2ccc3c(c2)cc(C(=O)N2CCN(Cc4ccccc4)CC2)n3C)nc1` [Example 336, (4-Benzylpiperazin-1-yl)(1-methyl-5-{5-[methyl(4-trifluoromethyl-phenyl)amino]pyridin-2-yloxyl}-1H-indol-2-yl)methanone hydrobromide] had a melting point of 212 to 218 °C.

`Br.Cn1c(C(=O)N2CCN(Cc3ccc(OCCF)cc3)CC2)cc2cc(Oc3ccc(NC(=O)c4ccc(Cl)c(Cl)c4)cn3)ccc21` [Example 409, 3,4-Dichloro-N-[6-(2-{4-[4-(2-fluoroethoxy)benzyl]piperazine-1-carbonyl}-1-methyl-1H-indol-5-yloxy)pyridin-3-yl]benzamide hydrobromide] returned a melting point of 240 to 243 °C.

As for `Br.Cn1c(C(=O)N2CCN(Cc3ccc(OC(CF)CF)cc3)CC2)cc2ccc(Oc3ccc(NC(=O)c4ccc(C(F)(F)F)cc4Cl)cn3)cc21` [Example 537, 2-Chloro-N-[6-(2-{4-[4-(2-fluoro-1-fluoromethylethoxy)benzyl]-piperazine-1-carbonyl}-1-methyl-1H-indol-6-yloxy)pyridin-3-yl]-4-trifluoromethylbenzamide hydrobromide], the melting point is 239.8 to 240.8 °C.

`Br.CN(C(=O)c1ccc(OC(F)(F)F)cc1)c1ccc(Oc2ccc3cc(C(=O)N4CCN(Cc5ccc(OCC(F)(F)F)cc5)CC4)n(C)c3c2)nc1` [Example 456, N-Methyl-N-[6-(1-methyl-2-{4-[4-(2,2,2-trifluoroethoxy)benzyl]-piperazine-1-carbonyl}-1H-indol-6-yloxy)pyridin-3-yl]-4-tri-fluoromethoxybenzamide hydrobromide] yielded a melting point of 227.4 to 229.2 °C.

Compound `CN(C(=O)c1ccc(C(F)(F)F)cc1O)c1ccc(Oc2ccc3c(c2)cc(C(=O)N2CCN(Cc4ccc(OC(F)F)cc4)CC2)n3C)nc1.O=C(O)C(=O)O` [Example 594, N-(6-{2-[4-(4-Difluoromethoxybenzyl)piperazine-1-carbonyl]-1-methyl-1H-indol-5-yloxy}pyridin-3-yl)-2-hydroxy-N-methyl-4-tri-fluoromethylbenzamide oxalate] yielded a melting point of 155 to 160 °C.

For `Br.CCCOc1ccc(CN2CCN(C(=O)c3cc4ccc(Oc5ccc(N(C)C(=O)c6ccc(Cl)c(Cl)c6)cn5)cc4n3C)CC2)cc1` [Example 487, 3,4-Dichloro-N-methyl-N-(6-{1-methyl-2-[4-(4-propoxybenzyl)-piperazine-1-carbonyl]-1H-indol-6-yloxy}pyridin-3-yl)benzamide hydrobromide], the melting point is 204.9 to 208.5 °C.

Consider `Br.Cn1c(C(=O)N2CCN(Cc3ccc4c(c3)OCO4)CC2)cc2cc(Oc3ccc(NC(=O)c4ccc(-n5cccc5)cc4)cn3)ccc21` [Example 11, N-{6-[2-(4-Benzo[1,3]dioxol-5-ylmethylpiperazine-1-carbonyl)-1-methyl-1H-indol-5-yloxy]pyridin-3-yl}-4-pyrrol-1-ylbenzamide hydrobromide], for which the melting point is 227 to 232 °C (dec.).

In turn, `Cn1c(C(=O)N2CCN(Cc3ccccn3)CC2)cc2cccc(Oc3ccc(NC(=O)c4ccc(C(F)(F)F)cc4)cn3)c21.O=C(O)C(=O)O.O=C(O)C(=O)O` [Example 243, N-{6-[1-Methyl-2-(4-pyridin-2-ylmethylpiperazine-1-carbonyl)-1H-indol-7-yloxy]pyridin-3-yl}-4-trifluoromethylbenzamide dioxalate] showed a melting point of 121 to 123 °C.

`Cc1cc(C(F)(F)F)ccc1C(=O)Nc1ccc(Oc2ccc3cc(C(=O)N4CCN(Cc5ccc(OCC(F)(F)F)cc5)CC4)n(C)c3c2)nc1.Cl` returned a melting point of 217.4 to 218.3 °C.

In turn, `CC(C)Oc1ccc(CN2CCN(C(=O)c3cc4ccc(Oc5ncc(NC(=O)c6ccc(C(F)(F)F)cc6)cn5)cc4n3C)CC2)cc1.Cl` yielded a melting point of 249.8 to 251 °C.

The compound `Br.CN(C(=O)c1ccc(C(F)(F)F)cc1)c1ccc(Oc2ccc3c(c2)cc(C(=O)N2CCN(Cc4ccccc4)CC2)n3C)nc1` [Example 329, N-{6-[2-(4-Benzylpiperazine-1-carbonyl)-1-methyl-1H-indol-5-yl-oxy]pyridin-3-yl}-N-methyl-4-trifluoromethylbenzamide hydrobromide] showed a melting point of 189 to 201 °C.

Take `Br.Br.CN(C(=O)c1ccc(C(F)(F)F)cc1)c1ccc(Oc2ccc3c(c2)cc(C(=O)N2CCN(Cc4ccc(OCC(F)(F)F)cc4)CC2)n3C)nc1` [Example 432, N-Methyl-N-[6-(1-methyl-2-{4-[4-(2,2,2-trifluoroethoxy)benzyl]-piperazine-1-carbonyl}-1H-indol-5-yloxy)pyridin-3-yl]-4-tri-fluoromethylbenzamide dihydrobromide]: the melting point was in the range of 211 to 212 °C.

Turning to `CC(C)Oc1ccc(CN2CCN(C(=O)c3cc4ccc(Oc5ccc(N(C)S(=O)(=O)c6ccc(Cl)c(Cl)c6)cn5)cc4n3C)CC2)cn1` [Example 517, 3,4-Dichloro-N-(6-{2-[4-(6-isopropoxypyridin-3-ylmethyl)-piperazine-1-carbonyl]-1-methyl-1H-indol-6-yloxy}pyridin-3-yl)-N-methylbenzenesulfonamide], the melting point is 179.1 to 179.7 °C.

Take `Br.Br.Cn1c(C(=O)N2CCN(Cc3ccc(C#N)cn3)CC2)cc2cc(Oc3ccc(NC(=O)c4ccc(Cl)c(Cl)c4)cn3)ccc21` [Example 386, 3,4-Dichloro-N-(6-{2-[4-(5-cyanopyridin-2-ylmethyl)piperazine-1-carbonyl]-1-methyl-1H-indol-5-yloxy}pyridin-3-yl)benzamide dihydrobromide]: the melting point lay within 216 to 219 °C.

In turn, `Br.CN(C(=O)c1ccc(C(F)(F)F)cc1Cl)c1ccc(Oc2ccc3cc(C(=O)N4CCN(Cc5ccc(OCC(F)F)cc5)CC4)n(C)c3c2)nc1` [Example 448, 2-Chloro-N-[6-(2-{4-[4-(2,2-difluoroethoxy)benzyl]piperazine-1-carbonyl}-1-methyl-1H-indol-6-yloxy)pyridin-3-yl]-N-methyl-4-tri-fluoromethylbenzamide hydrobromide] yielded a melting point of 232.4 to 232.8 °C.

Regarding `Cl.Cn1c(C(=O)N2CCN(Cc3ccc(OCC(F)F)cc3)CC2)cc2ccc(Oc3ncc(NC(=O)c4ccc(C(F)(F)F)cc4)cn3)cc21`, the melting point lay in the range of 251.4 to 253.5 °C.
